The record followed here is ChEMBL document CHEMBL1201862, “PubChem BioAssay data set” (2004).

The target in assay [1] is Cytochrome P450 3A4 (Homo sapiens, UniProt P08684). To be noted: Potency.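 Further: confirmatory qHTS run detecting inhibitors and substrates of CYP3A4.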
A short description of assay [2]: blockade of melanocortin 4 receptor signaling – cell-based, plate reader, cherry pick, counter-screen for LGR2 antagonist project, dose response (AID 743444).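 Further: transfected HEK 293 cells stimulated with alpha-MSH peptide; potency of inhibitors of the alpha-MSH evoked signal.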 Type of assay: functional. (Counterscreens check selectivity or assay interference.)
Assay [3] can be described thus: A549 cell cytotoxicity, dose response, cytotoxicity control, plate reader, cherry-pick, antagonist series (AID 743412). The format is functional, cell-based.
Assay [4] can be described thus: blockers of bursicon-stimulated LGR2 cAMP reporter – cell-based, HEK293, CRE-luciferase reporter, cherry pick, set 2, dose response (AID 743343).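 Further: transfected cells were stimulated with diluted bursicon conditioned medium after compound addition.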 Type of assay: functional.
In assay [5] the test system is BJ. Nature of the assay: cells. The format is functional, cell-based. To be noted: Homo sapiens.
Assay [6] relates to BJ. As to the kind of experiment: BJ-TERT-LT-ST fibroblast viability loss – cell-based, RAS-independent, luminescence, dose response (AID 1935).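 Further: BJ fibroblasts immortalized with TERT plus LT and ST oncogenes.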 Type of assay: functional. As to conditions: Homo sapiens.
Assay [7] deals with BJ. Nature of the assay: BJ-TERT fibroblast viability loss – cell-based, RAS-independent, luminescence, dose response (AID 1933). As to conditions: Homo sapiens. The format is functional.
Assay [8] is described as follows: DRD fibroblast viability loss – cell-based, non-viral oncogenic, luminescence, dose response (AID 1934). Type of assay: functional. As to conditions: Homo sapiens.
Assay [9] can be described thus: P. falciparum Dd2 growth inhibitors, dose response, SYBR Green, cherry-picked samples (AID 1159567). Type of assay: functional, cell-based.
A short description of assay [10]: OVCAR8 cell viability loss – plate reader, dry powder samples, PAX8 project, dose response (AID 743197). To be noted: OVCAR-8. Type of assay: functional, cell-based.
Assay [11] is described as follows: OVCAR-3 cell viability loss – plate reader, dry powder samples, PAX8 inhibitor project, dose response (AID 743044). Type of assay: functional, cell-based.
In assay [12] the target is Paired box protein Pax-8 (Homo sapiens, UniProt Q06710). Nature of the assay: PAX8 transcriptional activity inhibition in RMG-I – RMG-I cells, luciferase, cherry-pick, dose response (AID 687027).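 Further: luciferase reporter driven by Pax8 target thyroperoxidase promoter measured by SteadyGlo luminescence.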 Type of assay: functional, cell-based.
Assay [13] concerns the target T1, Trace amine-associated receptor 1 (Homo sapiens, UniProt Q96RJ0).
T1 sequence (Q96RJ0 whole entry): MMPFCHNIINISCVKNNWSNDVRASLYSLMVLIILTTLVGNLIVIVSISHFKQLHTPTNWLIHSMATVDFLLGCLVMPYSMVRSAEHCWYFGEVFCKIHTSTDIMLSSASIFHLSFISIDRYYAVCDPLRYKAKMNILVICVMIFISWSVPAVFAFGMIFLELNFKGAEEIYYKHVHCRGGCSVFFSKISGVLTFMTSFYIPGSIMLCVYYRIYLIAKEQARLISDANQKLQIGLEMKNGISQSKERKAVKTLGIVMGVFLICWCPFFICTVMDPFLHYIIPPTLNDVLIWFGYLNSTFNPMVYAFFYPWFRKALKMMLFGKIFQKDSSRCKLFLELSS
As to the kind of experiment: Fluorescence-based cell-based high throughput dose response assay to identify agonists of the human trace amine associated receptor 1 (TAAR1). The format is functional.

Assay [14] concerns the target T1, Trace amine-associated receptor 1. Nature of the assay: Counterscreen for agonists of the human trace amine associated receptor 1 (hTAAR1): Fluorescence-based cell-based high throughput dose response assay to identify hTAAR1 agonist that also desensitize TAAR1 receptor response. Type of assay: functional.
A short description of assay [15]: cells. The format is functional, cell-based.
Assay [16] can be described thus: cells. Type of assay: functional, cell-based. This is another data set of the same source.
Assay [17] is described as follows: IGROV1 cell killing – plate reader, dry powder samples, PAX8 inhibitor project, dose response (AID 743043). As to conditions: IGROV-1. Type of assay: functional, cell-based.
Assay [18] in a line: THP-1 cell cytotoxicity, dose response, cytotoxicity control for non-replicating M. tuberculosis project (AID 489025). The format is functional.
The nature of assay [19]: cells. Type of assay: functional.
Assay [20] addresses T2, DNA repair and recombination protein RAD54-like (Homo sapiens, UniProt Q92698).
T2 sequence (Q92698 whole entry): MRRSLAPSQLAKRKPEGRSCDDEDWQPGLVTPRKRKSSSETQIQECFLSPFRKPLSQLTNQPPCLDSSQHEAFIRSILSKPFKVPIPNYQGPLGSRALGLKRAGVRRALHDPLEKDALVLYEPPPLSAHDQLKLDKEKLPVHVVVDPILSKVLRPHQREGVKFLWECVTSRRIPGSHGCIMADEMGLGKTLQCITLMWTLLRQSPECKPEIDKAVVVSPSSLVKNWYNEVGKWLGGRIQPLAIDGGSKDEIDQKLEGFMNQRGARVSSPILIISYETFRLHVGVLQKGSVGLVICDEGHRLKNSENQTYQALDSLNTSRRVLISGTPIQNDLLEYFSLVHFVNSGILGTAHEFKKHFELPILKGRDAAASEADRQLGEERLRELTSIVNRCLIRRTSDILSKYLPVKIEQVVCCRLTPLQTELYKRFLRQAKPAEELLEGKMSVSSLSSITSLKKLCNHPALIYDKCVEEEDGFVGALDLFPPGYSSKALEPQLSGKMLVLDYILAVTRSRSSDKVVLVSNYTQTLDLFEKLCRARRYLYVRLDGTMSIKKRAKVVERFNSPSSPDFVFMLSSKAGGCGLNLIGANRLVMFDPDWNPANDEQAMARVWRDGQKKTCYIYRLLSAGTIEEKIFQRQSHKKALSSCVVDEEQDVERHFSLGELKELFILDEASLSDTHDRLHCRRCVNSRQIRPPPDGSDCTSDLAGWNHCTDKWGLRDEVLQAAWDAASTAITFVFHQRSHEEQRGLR
As to the kind of experiment: RAD54 Holliday junction migration blockers – biochemical, fluorescence, cherry-picked samples, dose series, confirmation (AID 651657). Type of assay: functional.

Assay [21] in a line: Luminescence Cell-Based Dose Confirmation HTS to Identify Activators of 5'UTR Stem-Loop Driven Alpha-Synuclein mRNA Translation in H4 Neuroglioblastoma Cells. [Related pubchem assays: 1829 (Project Summary), 1814 (Primary HTS)]. The format is functional.
Assay [22] in a line: Luminescence Cell-Based Dose Response HTS to Identify Activators of Luciferase Translation or Activity in H4 […] Cells. [Related pubchem assays: 1829 (Project Summary), 1814 (Primary HTS)]. The format is functional.
Assay [23] relates to H4. Nature of the assay: Luminescence Cell-Based Dose Response HTS to Identify Activators of 5'UTR Stem-Loop Driven Prion Protein mRNA Translation in H4 Neuroglioblastoma Cells. [Related pubchem assays: 1829 (Project Summary), 1814 (Primary HTS)]. The format is functional. As to conditions: Homo sapiens.
Assay [24] can be described thus: blockers of HIV-1 ZM109 envelope-driven cell-cell fusion – HeLa effector, CEM target cells, luciferase, cherry-pick, dose response (AID 652058).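 Further: luciferase signal from HIV-1 Env mediated cell-cell fusion of effector and target cells.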 The format is functional, cell-based.
A short description of assay [25]: blockers of HIV-1 envelope-mediated cell-cell fusion – cherry-pick, dose response (AID 652057). The format is functional, cell-based.
Assay [26] can be described thus: off-target signal loss in HeLa-CEM21 co-culture – HeLa F-luc CTL cells, cherry-picked, counter-screen for HIV-1 Env fusion inhibitor project, dose response (AID 652040).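 Further: potency for signal decrease marking cytotoxic or nonspecific inhibition.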 Type of assay: functional, cell-based.
Assay [27] in a line: HIV-1 AD8 envelope cell-cell fusion blockers – cherry-pick, dose response (AID 652062).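 Further: luciferase signal from cell-cell fusion driven by HIV-1 clade B AD8 Env; potency is for inhibitors of fusion seen as a drop in luminescence.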 Type of assay: functional, cell-based.
Assay [28] deals with T3, Ubiquitin-conjugating enzyme E2 N (Homo sapiens, UniProt P61088).
T3 sequence (P61088 whole entry): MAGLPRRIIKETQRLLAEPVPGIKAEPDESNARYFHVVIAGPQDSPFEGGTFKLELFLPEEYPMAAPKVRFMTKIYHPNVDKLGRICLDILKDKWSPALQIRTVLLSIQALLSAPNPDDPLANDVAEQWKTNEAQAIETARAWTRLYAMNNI
The format is functional.

Active and inactive are the calls of the source. Some results are limits rather than exact numbers.

Sequence of Cytochrome P450 3A4 (P08684 whole entry): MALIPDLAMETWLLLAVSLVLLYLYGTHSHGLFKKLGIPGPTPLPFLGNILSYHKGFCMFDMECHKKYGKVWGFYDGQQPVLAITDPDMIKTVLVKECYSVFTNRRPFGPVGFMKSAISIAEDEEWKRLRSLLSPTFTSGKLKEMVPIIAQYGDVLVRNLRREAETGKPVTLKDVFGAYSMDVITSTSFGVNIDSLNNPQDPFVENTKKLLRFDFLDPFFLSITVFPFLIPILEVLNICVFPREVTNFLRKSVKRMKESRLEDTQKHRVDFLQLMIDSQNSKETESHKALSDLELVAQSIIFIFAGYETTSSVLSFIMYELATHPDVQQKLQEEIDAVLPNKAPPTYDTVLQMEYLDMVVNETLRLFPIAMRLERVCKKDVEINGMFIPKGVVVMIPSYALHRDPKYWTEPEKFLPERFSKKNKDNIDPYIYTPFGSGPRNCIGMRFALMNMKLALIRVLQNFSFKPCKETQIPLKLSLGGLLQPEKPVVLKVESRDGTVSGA
Sequence of Paired box protein Pax-8 (Q06710 whole entry): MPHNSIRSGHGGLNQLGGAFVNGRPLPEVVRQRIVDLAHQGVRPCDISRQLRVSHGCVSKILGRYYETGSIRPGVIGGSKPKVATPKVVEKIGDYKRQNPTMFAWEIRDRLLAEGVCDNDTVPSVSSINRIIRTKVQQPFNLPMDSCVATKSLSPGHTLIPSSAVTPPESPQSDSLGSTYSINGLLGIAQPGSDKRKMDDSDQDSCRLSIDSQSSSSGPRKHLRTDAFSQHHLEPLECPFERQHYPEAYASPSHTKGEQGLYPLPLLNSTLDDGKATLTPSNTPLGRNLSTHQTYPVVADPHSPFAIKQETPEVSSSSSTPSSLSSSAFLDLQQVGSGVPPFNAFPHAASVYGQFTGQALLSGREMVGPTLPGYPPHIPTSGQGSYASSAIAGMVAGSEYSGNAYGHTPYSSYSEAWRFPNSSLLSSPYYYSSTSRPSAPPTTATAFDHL

A word on the AC50: it is the concentration at which the activity in the assay is half-maximal. Take `COC1=CC(=O)OC(CCc2ccccc2)C1` (configuration not stated): the AC50 in [1] is 12.6 µM (inconclusive).

For the compound `COCCOc1cc(NCc2ccccc2)c2ncn(C(C)C)c2c1`, the half-maximal activity concentration (AC50) in [2] was 17.9 µM (active); in [3], 44.3 µM (active); in [4] it was 12 µM (active).

One may read the EC50 as the midpoint of the concentration-response curve. As to `CCc1ccc(CN(C(=O)COc2c(C)cccc2C)C2CCS(=O)(=O)C2)cc1` (configuration not stated), the EC50 in assay [5] was > 150 µM (not active); in [6], > 150 µM (inconclusive); in assay [7], > 150 µM (not active); in assay [8] it was > 150 µM (not active).

Regarding `C[C@H](CO)N1C[C@H](C)[C@@H](CN(C)S(=O)(=O)c2cccc(F)c2)OCc2ccccc2-c2c(n(C)c3ccccc23)C1=O`, the AC50 in assay [9] was 4.19 µM (active); in [10] it was > 70 µM (inactive); in assay [11] it was 43.2 µM (active); in [12] it was 11.1 µM (active).

Consider `CNC(=O)C1(C)C=CC2(CCCCC2)N1C(C)=O` (configuration not stated), for which the half-maximal activity concentration (AC50) in assay [1] was 15.8 µM (inconclusive).

Broadly, the IC50 is the midpoint of a concentration-inhibition curve. As for `Cc1ccsc1/C=N/NC(=O)Cn1nc(C)c([N+](=O)[O-])c1C`, the values for the concentration giving a half-maximal response (EC50) in assay [13] and in assay [15] were 3.79 µM (active) and > 29.9 µM (inactive), respectively. Besides, the half-maximal inhibitory concentration (IC50) is 5.81 µM (active) in [14] and > 29.9 µM (inactive) in assay [16].

Regarding `O=C(CCn1c(=S)[nH]c2cc3c(cc2c1=O)OCO3)NCCc1ccccc1Cl`, the EC50 in assay [13] was 7.04 µM (active); in assay [15] it was > 29.9 µM (inactive). Moreover, the IC50 was 9.24 µM (active) in assay [14] and > 29.9 µM (inactive) in assay [16].

Take `C[C@@H]1CN([C@H](C)CO)C(=O)c2cc(NC(=O)Nc3ccc(C(F)(F)F)cc3)ccc2O[C@@H](C)CCCCO[C@@H]1CN(C)Cc1ccc2c(c1)OCO2`: the half-maximal activity concentration (AC50) in [17] is 28.4 µM (active); in assay [10], 26.4 µM (active); in assay [11] it was 25.1 µM (active); in assay [12], 5.56 µM (active).

Consider `COc1cccc(OC)c1C(=O)NCCc1ccccc1`, for which the figures for the concentration for a half-maximal effect (EC50) in [13] and in assay [15] were 2.64 µM (active) and > 29.9 µM (inactive), respectively. Also, the IC50 in assay [14] was 9.6 µM (active); in assay [16] it was > 29.9 µM (inactive).

On to `Nc1c(NCCc2ccccc2)c2ccccc2oc1=O`, for which the EC50 in [13] is 1.86 µM (active); in assay [15], > 29.9 µM (inactive). The IC50 in assay [14] is 6.4 µM (active); in assay [16], > 29.9 µM (inactive).

One may read the CC50 as the concentration giving 50% cytotoxicity. Consider `CCOC(=O)CNC(=O)CNC(=O)c1nn(-c2ccc(OC)c(Cl)c2)c(=O)c2ccccc12`, for which the CC50 in [18] is > 40 µM (active). In assay [19], the IC50 is 17.8 µM (active).

With `CCN(CC)CCCNC(=O)c1ccc2c3n(nc2c1)-c1ccc(Cl)cc1CO3`, in assay [20], the concentration at half-maximal activity (AC50) was 44.5 µM (active). The half-maximal effective concentration (EC50) in [21] was 101 µM (active); in assay [22] it was 3.59 µM (active); in assay [23], 0.334 µM (active).

`c1ccc(-c2nc(NCCCn3ccnc3)c3oc4ccccc4c3n2)cc1`: the AC50 in [20] is 100 µM (inactive).

Turning to `C[C@@H]1CN([C@@H](C)CO)C(=O)Cc2cc(N(C)C)ccc2O[C@H]1CN(C)Cc1ccc(C(=O)Nc2ccccc2N)cc1`, the AC50 in assay [17] was 45.1 µM (active); in [10] it was > 70 µM (inactive); in assay [11] it was < 0.26 µM (active); in assay [12], 16.6 µM (active).

Regarding `COc1ccc(-c2cc(=O)c3c(O)c(OC)c(OC)c(OC)c3o2)cc1OC` [5-DEMETHYLNOBILETIN], the concentration at half-maximal activity (AC50) in assay [1] was 10 µM (inconclusive).

In the case of `CCN1C(=O)[C@H]2[C@@H](c3ccc(C)cc3)N3C(=O)N(c4cccc(Br)c4)C(=O)[C@@]3(CC)[C@H]2C1=O`, the AC50 is 3.01 µM (active) in assay [24], 4.44 µM (active) in assay [25], 6.04 µM (active) in assay [26] and 1.18 µM (active) in [27].

For the compound `CCN(CC)CCNC(=O)c1cc2c(=O)n(C)c3ccccc3c2s1`, the AC50 in assay [20] was 19.6 µM (active). In assay [28], the IC50 is > 20 µM (inactive).

Consider `Cc1nnc(SCc2nc3ccccc3c(=O)n2-c2ccccc2Cl)n1N`, for which the AC50 is 4.98 µM (active) in assay [24], 4.45 µM (active) in assay [25], 4.79 µM (active) in assay [26] and 10.2 µM (active) in assay [27].

Regarding `CC1=C(C(=O)OCc2ccccc2)C(c2ccc(C(F)(F)F)cc2)NC(=O)N1CCCCCC(=O)O` (configuration not stated), in assay [1], the half-maximal activity concentration (AC50) is 15.8 µM (inconclusive).

On to `COc1cc2cc[n+]3cc4c(OC)c(OC)ccc4cc3c2cc1OC`, for which, in assay [1], the concentration at half-maximal activity (AC50) was 20 µM (inconclusive).
